Measurements published in patent publication EP0863136B1, “Derivatives of azetidine and pyrrolidine” (Akzo Nobel N.V., priority 1997, dated 1998).

Columns and labels:
DRL-72 test = type: in vivo; details: rats, operant performance
From the text: This test, carried out according to the protocol of Andrews et al ["Effects of imipramine and mirtazapine on operant performance in rats" - Drug Development Research 32: 58-66 (1994)], gives an indication of potential antidepressant-like activity.

human 5-HT2A receptors = target: T1, human 5-HT2A receptors (Homo sapiens, UniProt P28223); test: Binding test, displacement of [3H]-ketanserin, cloned human receptors expressed in 3T3 cells; details: cloned human receptor in 3T3 cells; [3H]-ketanserin displacement; read-out: Binding pKi 5HT2A (converted)
T1 construct: expressed in transfected cells; host or cells: 3T3 cells
Method: (§1) The tests are carried out using cloned human receptors expressed in 3T3 cells according to the protocols described in Stam et al "Genomic organization, coding sequence and functional expression of human 5-HT2 and 5-HT1A receptor genes" - European Journal of Pharmacology - Molecular Pharmacology Section 227: 153-162 (1993) and Stam et al "Genomic organisation and functional expression of the gene encoding the human serotonin 5-HT2C receptor" - European Journal of Pharmacology - Molecular Pharmacology Section 269: 339-348 (1994).

5HT2C receptors = target: T2, 5HT2C receptors (Rattus norvegicus, UniProt P08909); test: Penile erection test; type: in vivo; details: rats
T2 construct: from tissue; host or cells: whole animal (rat), in vivo
T2 sequence (P08909 33-460): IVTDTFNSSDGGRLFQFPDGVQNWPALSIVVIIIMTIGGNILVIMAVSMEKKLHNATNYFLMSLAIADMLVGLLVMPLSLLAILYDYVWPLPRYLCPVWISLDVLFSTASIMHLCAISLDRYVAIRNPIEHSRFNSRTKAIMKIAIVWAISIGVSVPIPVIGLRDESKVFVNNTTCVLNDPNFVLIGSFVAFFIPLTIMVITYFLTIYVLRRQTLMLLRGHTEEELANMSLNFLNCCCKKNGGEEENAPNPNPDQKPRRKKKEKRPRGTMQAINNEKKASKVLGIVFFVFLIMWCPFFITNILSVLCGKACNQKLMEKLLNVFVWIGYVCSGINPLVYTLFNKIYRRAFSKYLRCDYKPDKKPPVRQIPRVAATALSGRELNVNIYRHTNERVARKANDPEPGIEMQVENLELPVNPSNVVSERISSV
From the text: This test, carried out according to the protocol of Berendsen et al ["In volvement of 5-HT1C receptors in drug-induced penile erections in rats" - Psychopharmacology 101: 57-61(1990)] enables the potential in vivo activity at 5HT2C receptors to be assessed.

human 5-HT2C = target: T3, human 5-HT2C (Homo sapiens, UniProt P28335); test: Binding test, displacement of [3H]-mesulergine, cloned human receptors expressed in 3T3 cells; details: cloned human receptor in 3T3 cells; [3H]-mesulergine displacement; read-out: Binding pKi 5HT2C (converted)
T3 construct: expressed in transfected cells; host or cells: 3T3 cells
T3 sequence (P28335 33-458): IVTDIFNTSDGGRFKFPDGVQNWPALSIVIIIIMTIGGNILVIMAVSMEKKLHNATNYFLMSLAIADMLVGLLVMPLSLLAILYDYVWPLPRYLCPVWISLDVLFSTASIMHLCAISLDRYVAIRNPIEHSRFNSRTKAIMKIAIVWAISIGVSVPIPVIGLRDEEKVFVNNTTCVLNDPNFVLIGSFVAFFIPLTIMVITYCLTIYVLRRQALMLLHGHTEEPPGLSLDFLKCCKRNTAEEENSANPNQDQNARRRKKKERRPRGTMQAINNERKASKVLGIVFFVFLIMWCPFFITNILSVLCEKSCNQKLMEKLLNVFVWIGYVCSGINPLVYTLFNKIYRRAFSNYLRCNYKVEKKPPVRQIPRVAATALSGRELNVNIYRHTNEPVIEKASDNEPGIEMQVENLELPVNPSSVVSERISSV
Method: as §1

T1 sequence (P28223 whole entry): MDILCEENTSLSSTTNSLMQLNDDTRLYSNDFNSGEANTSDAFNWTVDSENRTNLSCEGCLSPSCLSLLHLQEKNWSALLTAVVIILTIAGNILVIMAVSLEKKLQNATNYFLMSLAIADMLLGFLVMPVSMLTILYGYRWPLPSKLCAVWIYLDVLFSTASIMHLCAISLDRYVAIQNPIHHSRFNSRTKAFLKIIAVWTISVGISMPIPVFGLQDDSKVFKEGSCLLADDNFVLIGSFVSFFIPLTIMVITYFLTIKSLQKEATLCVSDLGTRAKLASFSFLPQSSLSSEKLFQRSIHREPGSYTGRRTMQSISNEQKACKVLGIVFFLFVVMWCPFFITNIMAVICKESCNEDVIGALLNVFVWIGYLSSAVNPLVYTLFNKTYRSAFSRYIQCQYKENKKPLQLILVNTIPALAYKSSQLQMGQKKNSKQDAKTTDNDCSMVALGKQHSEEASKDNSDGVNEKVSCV

For `COc1ccc2c(c1OC1CNC1)CCC2.Cl` [Compound 5d, 3-[(2,3-Dihydro-5-methoxy-1H-inden-4-yl)oxy]-azetidine hydrochloride], the “Increase in pellets earned in DRL-72 (MED, mg.kg-1)” value (“Increase in pellets earned” for short) (DRL-72 test) was 10 mg/kg, the Ki (human 5-HT2A receptors) was 398 nM and the “Erection of the penis (MED, mg.kg-1)” value (5HT2C receptors) was 1 mg/kg. The Ki (human 5-HT2C) was 31.6 nM.

For `COc1ccc2c(c1OC1CCNC1)CCC2.Cl` (racemic) [Compound 10b, (rac)-3-[(2,3-Dihydro-5-methoxy-1H-inden-4-yl)oxy] pyrrolidine hydrochloride], the “Increase in pellets earned” value (DRL-72 test) was 10 mg/kg, the “Erection of the penis (MED, mg.kg-1)” value (5HT2C receptors) was 1 mg/kg and the Ki (human 5-HT2C) was 25.1 nM.

For `COc1ccc2c(c1O[C@H]1CCNC1)CCC2.Cl` [Compound 9a, (S)-(+)-3-[(2,3-Dihydro-5-methoxy-1H-inden-4-yl)oxy]-pyrrolidine hydrochloride], the “Increase in pellets earned” value (DRL-72 test) was 3 mg/kg, the “Erection of the penis (MED, mg.kg-1)” value (5HT2C receptors) was 0.46 mg/kg and the Ki (human 5-HT2C) was 10 nM.
